From ChEMBL document CHEMBL1156829 (Proc Natl Acad Sci U S A, 2008)

Legend:
Plasmodium falciparum [1] = experiment: NOVARTIS: Inhibition of Plasmodium falciparum 3D7 (drug-susceptible) proliferation in erythrocyte-based infection assay; type: functional, organism-based; details: Plasmodium falciparum, 3D7
[2] = NOVARTIS: Cytotoxicity against human hepatocellular carcinoma cell line (Huh7); type: toxicity, cell-based, Huh-7; details: Huh7 cells (hepatocellular carcinoma cell line)
Plasmodium falciparum [3] = experiment: NOVARTIS: Inhibition of Plasmodium falciparum W2 (drug-resistant) proliferation in erythrocyte-based infection assay; type: functional, organism-based; details: Plasmodium falciparum, W2; read-out: EC50

Structure (SMILES)	EC50 (Plasmodium falciparum [1]) [nM]	CC50 [2] [nM]	EC50 (Plasmodium falciparum [3]) [nM]
Nc1nc(N)c2c(Oc3ccccc3)cccc2n1	448	> 10000	26.7
C(#Cc1ccccc1)C[N+]1(CC#Cc2ccc(C#CC[N+]3(CC#Cc4ccccc4)CCCCC3)cc2)CCCCC1	493	> 100000	252
OCC(O)COc1cccc2ccccc12 (stereo not given)	> 1050	> 11200	< 29.7
CC(C)c1ccc(NC(=O)C=Cc2ccccc2Cl)cc1	102	17500	45.6
CN(C)c1cc[n+](CC(=O)c2ccc(Br)cc2)cc1	211	75600	183
O=C(Nc1ccc(NC2=NCCN2)cc1)c1ccc(C(=O)Nc2ccc(NC3=NCCN3)cc2)cc1	166	> 10000	25.6
CCCCN(CCCC)CC(O)c1cc(-c2ccc(Cl)cc2)nc2cc(Cl)ccc12 (stereo not given)	189	> 12400	32.6
COc1cc(OC)cc(C(=O)NCc2n[nH]c(=S)n2-c2cccc(C(F)(F)F)c2)c1	258	> 100000	261
Cc1cc(C)c2c(c1)OC(N)(C(Cl)(Cl)Cl)CC2=O (stereo not given)	435	> 100000	260
O=C(Nc1ccccc1)c1ccccc1OCC(O)Cn1c2ccccc2c2ccccc21 (stereo not given)	282	> 100000	267
CCCCNCC(O)(c1ccc(Cl)cc1)c1ccc(Cl)cc1	720	38500	99.7
COc1ccccc1NC(=O)N(CCC(C)C)C(C)c1nc2ccccc2c(=O)n1-c1ccccc1Cl (stereo not given)	817	> 10000	< 25.8
CSC(Cl)=C(NC(C)=O)[P+](c1ccccc1)(c1ccccc1)c1ccccc1	126	> 100000	257
CCCN1CCC(NC(c2ccccc2)c2ccc(Cl)cc2)CC1 (stereo not given)	753	20200	51.9
CC1CCCCN1CCCNc1ncc(C(=O)NCC2CCCO2)c(NCCc2ccccc2)n1 (stereo not given)	918	> 10000	26.7
CC(C)CNC(=O)c1cnc(NCCCN)nc1NC1CCCC1	635	> 10000	26.7
CCCCCc1nnc(NC(=O)c2ccc(-c3ccc(OC)cc3)cc2)s1	457	> 10000	26.7
O=C1Nc2ccc(Br)cc2C12NCCc1c2[nH]c2ccccc12 (stereo not given)	198	42200	111
COc1c2occc2c(OC)c2c(=O)cc(C(Cl)(Cl)Cl)oc12	646	> 100000	254
CCOC(=O)c1ccc(NCc2c(C)[nH]c3ccccc3c2=O)cc1	342	> 100000	254
Cc1ccc2c(c1)-c1c(ssc1=S)C(C)(C)N2C(=O)c1ccco1	276	> 100000	254
CCCCCCN(C(=O)CCc1ccccc1)C(CC)c1nc2ccccc2c(=O)n1-c1ccc(Cl)cc1 (stereo not given)	1160	> 10000	26.7
CCOc1ccc(C=C(C#N)c2nc3ccccc3[nH]2)cc1OC	516	> 100000	263
O=C1C(NC2CCCCC2)=C(N2CCOCC2)C(=O)c2ccccc21	139	46100	116
Cc1ccc2[nH]c3c(NCCN4CCCCC4)ncnc3c2c1	216	39700	99
CC(=O)c1c(C)n(CC(=O)Nc2cccc(C)c2)c2ccccc12	329	> 100000	248
CCOc1ccc(NC(=O)c2ccc(F)c(S(=O)(=O)NC3CCCCCC3)c2)cc1	1350	54800	135
Oc1ccc(-c2ccnc3cc(Cl)ccc23)cc1CNC1CN2CCC1CC2 (stereo not given)	986	> 10000	< 24.1

Structure (SMILES)	EC50 (Plasmodium falciparum [1]) [nM]	CC50 [2] [nM]	EC50 (Plasmodium falciparum [3]) [nM]
CCCCC(=O)NC(c1ccccc1)c1ccc2cccnc2c1O (stereo not given)	387	> 100000	239
CCc1c(C)c(C#N)c2nc3ccccc3n2c1NCc1ccccc1	787	> 100000	238
O=C(NCC1CCCO1)c1cnc(NCCCn2ccnc2)nc1NCCc1ccccc1 (stereo not given)	1010	> 10000	26.7
CC(C)C(=O)N1CCOc2c(cc(-c3csc4ccccc34)cc2OCCc2ccccn2)C1	183	50600	125
O=[N+]([O-])c1cccc2c1nnn2C12CC3CC(CC(O)(C3)C1)C2	536	> 100000	245
Nc1noc2cccc(OC3CCNCC3)c12	1030	> 10000	< 24.5
CCN1C=CC(=Cc2ccc3cc(C)ccc3[n+]2C)C=C1	170	> 58000	140
N#Cc1ccc(CNC(=S)Nc2cc(Cl)ccc2Cl)cc1	421	> 100000	238
CC1=C(C(=O)OC2CCCC2)C(c2ccccc2F)C2=C(CC(c3ccccc3)CC2=O)N1 (stereo not given)	541	> 100000	259
CCCCNC(=O)CSCc1cnn(-c2ccccc2)c1-n1cccc1	253	> 100000	257
Oc1ccc(-c2ccnc3cc(Cl)ccc23)cc1CNC1CCCCC1	119	5940	15.2
O=[N+]([O-])c1ccc(-n2ncc(-c3nc(-c4ccc(Cl)cc4)no3)c2C(F)(F)F)cc1	> 1210	> 10000	26.7
COc1cc(C2CC(=O)NC(C)=C2C(=O)OC(C)C)c(OC)cc1Br (stereo not given)	1030	> 100000	242
COc1ccc(-n2c(COc3cccc4ccccc34)nnc2SC)cc1	524	> 100000	236
N#Cc1c2c(c(N3CCN(Cc4ccccc4)CC3)n3c1nc1ccccc13)CCC2	311	> 100000	248
CCOC(=O)C1=C(C)NC2=C(C(=O)C(C(=O)OCC)C(c3ccccc3OC)C2)C1c1cccs1 (stereo not given)	1830	> 100000	241
CN(C)C=Nc1nn(C)cc1C(=O)Nc1ccc(F)c(Cl)c1	> 7010	> 100000	264
Cc1ccccc1C=NNc1nc2ccccc2[nH]1	605	> 100000	249
CCOc1c(Br)cc(C2C(C(=O)OC)=CN(C)C=C2C(=O)OC)cc1OC	292	> 100000	263
CCN(CC)CCNC(=O)c1cc(-c2ccc(Cl)cc2)cc(-n2cnnn2)c1	644	> 10000	< 26.1
CC[n+]1cccc2ccc3cccnc3c21	553	> 100000	257
COc1cc(OC)cc(C(=O)NCc2n[nH]c(=S)n2-c2ccc(Br)cc2)c1	325	> 100000	252
O=C(Nc1ccc2nc3n(c(=O)c2c1)CCCCC3)C(=O)N1CCN(c2cccc(Cl)c2)CC1	1810	> 100000	250
Cc1ccn2c(NC(C)(C)CC(C)(C)C)c(-c3ccccc3OC(=O)c3ccc4c(c3)OCO4)nc2c1	831	> 10000	24.1
CC(C)(C)OCCN(CC(O)CN(Cc1ccccc1)C(=O)NC(c1ccccc1)c1ccccc1)S(=O)(=O)c1ccccc1 (stereo not given)	1100	> 10000	< 26.4
CCCCN(CCCC)CCCNc1ncnc2c1[nH]c1ccc(Cl)cc12	230	61800	162
c1ccc2c(c1)[nH]c1ccc3ccncc3c12	85.3	> 10000	24.2
